Measurements taken from US20180344756A1, “METHODS FOR THE TREATMENT AND PREVENTION OF RENAL DISORDERS AND FATTY LIVER DISORDERS” (Janssen Pharmaceutica NV, priority 2014, published 2018).

Tests used:
[1] = Albumin/creatinine ratio in the CANVAS clinical trial, subjects with micro- or macroalbuminuria; type: in vivo, human; conditions: for median percent change from baseline in ACR at Week 52: subjects with macroalbuminuria, Week 52, 82% of subjects on ACEIs or ARBs at baseline, placebo −3.6%
Procedure: (§1) The albumin/creatinine ratio was measured at baseline, over 12 weeks, over 52 weeks, and over 104 weeks, in subjects participating in the CANagliflozin cardioVascular Assessment Study (CANVAS), the DIA3004 clinical trial, and the DIA3009 clinical trial, respectively. (Complete protocol details for the CANVAS, DIA3004 and DIA3009 clinical trials are available on www.clinicaltrials.gov).
In subjects with macroalbuminuria in CANVAS, the median percent change from baseline in ACR at Week 52 was −3.6% in the placebo group, −58.6% in the canagliflozin 100 mg group, and −53.3% in the canagliflozin 300 mg group.

[2] = Albuminuria in the DIA3004 clinical trial, subjects with moderate renal impairment; type: in vivo, human; conditions: 52-week study, placebo 19.7%
Procedure: as §1

[3] = eGFR change from baseline over time in the CANVAS, DIA3004 and DIA3009 clinical trials; type: in vivo, human; conditions: maximal at first post baseline visit, stable or attenuated with continued treatment; CANVAS and DIA3004 52 weeks, DIA3009 104 weeks; FIG. 3-5
Excerpt: The time course of eGFR changes over 52 weeks in the CANVAS clinical trial is shown in FIG. 3; over a 52-week study in subjects with moderate renal impairment (in the DIA3004 clinical trial) are shown in FIG. 4; and over a 104-week period in an active comparator study (DIA3009, add-on to metformin) are shown in FIG. 5.

[4] = metformin on its own, in the diabetic; cited from earlier work

Row | SMILES | median percent change from baseline in ACR at Week 52 ([1]; canagliflozin 100 mg) | median percent change from baseline in ACR at Week 52 ([1]; canagliflozin 300 mg) | albuminuria after 52 weeks of treatment (in words) ([1]; subjects with micro- and macroalbuminuria at baseline, FIG. 1 and FIG. 2) | median percent reductions in albuminuria ([2]; baseline eGFR 30 to <50 ml/min/1.73 m^2, canagliflozin 100 mg) | median percent reductions in albuminuria ([2]; baseline eGFR 30 to <50 ml/min/1.73 m^2, canagliflozin 300 mg) | effect on eGFR (in words) [3] | average improvement in the HbA1c value [4]
1 | Cc1ccc([C@@H]2O[C@H](CO)[C@@H](O)[C@H](O)[C@H]2O)cc1Cc1ccc(-c2ccc(F)cc2)s1 [canagliflozin] | −58.6% | −53.3% | reductions in albuminuria | −16.4% | −28.0% | dose-dependent, reversible reduction in eGFR | 
2 | CN(C)C(=N)N=C(N)N [metformin] |  |  |  |  |  |  | 1.0-1.5%
